From ChEMBL document CHEMBL1201862, “PubChem BioAssay data set” (2004)
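Step 1: Grow cells in 96-well plates. Step 2: Expose to compound for 48 hours at 5 concentrations. Step 3: Interpolate endpoints linearly; if unreached, use highest concentration. Here, GI50 denotes the concentration required for 50% inhibition of growth.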 The source made the active and inactive calls. No stated cut-off is given here; in the data, active = GI50 up to about 1.1 µM and inactive = higher.

Legend:
Experiment in all cases: NCI anticancer screen, dose series, 48 h
NCI-H522 = test system: NCI-H522
MOLT-4 = test system: MOLT-4
KM12 = test system: KM12
A498 = test system: A498
OVCAR-8 = test system: OVCAR-8
Malme-3M = test system: Malme-3M
HCT-116 = test system: HCT-116
NCI-H226 = test system: NCI-H226
NCI-H460 = test system: NCI-H460
SK-MEL-2 = test system: SK-MEL-2
OVCAR-4 = test system: OVCAR-4
HCT-15 = test system: HCT-15
K562 = test system: K562
SNB-75 = test system: SNB-75
RPMI-8226 = test system: RPMI-8226
COLO 205 = test system: COLO 205
M14 = test system: M14
NCI-H23 = test system: NCI-H23
RXF 393 = test system: RXF 393

Structure (SMILES) | GI50 (NCI-H522) | GI50 (MOLT-4) | GI50 (KM12) | GI50 (A498) | GI50 (OVCAR-8) | GI50 (Malme-3M) | GI50 (HCT-116) | GI50 (NCI-H226) | GI50 (NCI-H460) | GI50 (SK-MEL-2) | GI50 (OVCAR-4) | GI50 (HCT-15) | GI50 (K562) | GI50 (SNB-75) | GI50 (RPMI-8226) | GI50 (COLO 205) | GI50 (M14) | GI50 (NCI-H23) | GI50 (RXF 393)
CC(C)(C)c1ccc(Oc2ccc(C#N)c(C#N)c2)c(C(C)(C)C)c1 | 17.2 µM (inactive) | 17.4 µM (inactive) | 29.8 µM (inactive) | > 63.5 µM (inactive) | 51.4 µM (inactive) | > 100 µM (inactive) | 24.6 µM (inactive) | 46.6 µM (inactive) | 28.8 µM (inactive) | 40.6 µM (inactive) | 49.7 µM (inactive) | 14.4 µM | 21.2 µM (inactive) | > 26.3 µM (inactive) | 17 µM (inactive) | 28.3 µM (inactive) | 53 µM (inactive) | 43.6 µM (inactive) | 24.3 µM (inactive)
Cn1c(CCC#N)nc2ccc(Br)cc2c1=O | > 100 µM (inactive) | > 100 µM (inactive) | > 100 µM (inactive) | > 100 µM (inactive) | > 100 µM (inactive) | > 100 µM (inactive) |  | > 100 µM (inactive) | > 100 µM (inactive) | > 100 µM (inactive) | > 100 µM (inactive) | > 100 µM | > 100 µM (inactive) | > 100 µM (inactive) | > 100 µM (inactive) | > 100 µM (inactive) | > 100 µM (inactive) | 41.7 µM (inactive) | > 100 µM (inactive)
COc1cccc(NC(=O)CC(=O)N2N=C(N(CCC#N)c3ccc(Cl)cc3)CC2c2ccccc2)c1 (stereo not drawn) | > 100 µM (inactive) | > 100 µM (inactive) | > 100 µM (inactive) | > 100 µM (inactive) | > 100 µM (inactive) | > 100 µM (inactive) | > 100 µM (inactive) | > 100 µM (inactive) | > 100 µM (inactive) | > 100 µM (inactive) | > 100 µM (inactive) | > 100 µM | > 100 µM (inactive) | > 100 µM (inactive) | > 100 µM (inactive) | > 100 µM (inactive) | > 100 µM (inactive) | > 100 µM (inactive) | > 100 µM (inactive)
CCc1cccc(CC)c1NC(=O)C(=O)Cc1nc2ccccc2o1 | > 100 µM (inactive) | > 100 µM (inactive) | > 100 µM (inactive) | > 100 µM (inactive) | > 100 µM (inactive) | > 100 µM (inactive) | > 100 µM (inactive) | > 100 µM (inactive) | > 100 µM (inactive) | > 100 µM (inactive) | > 100 µM (inactive) | > 100 µM | > 100 µM (inactive) |  | > 100 µM (inactive) | > 100 µM (inactive) | > 100 µM (inactive) | > 100 µM (inactive) | > 100 µM (inactive)
COc1ccc2c3ccc4c(c3n(C)c2c1)C(=O)c1ccccc1C4=O | > 100 µM (inactive) | > 100 µM (inactive) |  | 48.4 µM (inactive) | 36.9 µM (inactive) | 85.7 µM (inactive) | 30.1 µM (inactive) | > 100 µM (inactive) |  |  | 17.8 µM (inactive) | > 100 µM | > 100 µM (inactive) | > 100 µM (inactive) | > 100 µM (inactive) | 75.2 µM (inactive) | > 100 µM (inactive) | > 100 µM (inactive) | > 100 µM (inactive)
N#CC(/C(=N\NC(N)=S)C(=O)NC1C2CC3CC(C2)CC1C3)c1ccc(Cl)cc1 (stereo not drawn) | > 100 µM (inactive) | > 100 µM (inactive) | > 100 µM (inactive) | > 100 µM (inactive) | > 100 µM (inactive) | > 100 µM (inactive) | > 100 µM (inactive) | > 100 µM (inactive) | > 100 µM (inactive) | > 100 µM (inactive) | > 100 µM (inactive) | > 100 µM | > 100 µM (inactive) | > 100 µM (inactive) | > 100 µM (inactive) | > 100 µM (inactive) | > 100 µM (inactive) | > 100 µM (inactive) | > 100 µM (inactive)
O=C1NC(Cc2ccccc2)C(=O)N2CCCC12 (stereo not drawn) | > 100 µM (inactive) | > 100 µM (inactive) | > 100 µM (inactive) | > 100 µM (inactive) | > 100 µM (inactive) | > 100 µM (inactive) | > 100 µM (inactive) | > 100 µM (inactive) | > 100 µM (inactive) | > 100 µM (inactive) | > 100 µM (inactive) | > 100 µM | > 100 µM (inactive) | > 100 µM (inactive) | > 100 µM (inactive) | > 100 µM (inactive) | > 100 µM (inactive) |  | > 100 µM (inactive)
CCCNCc1nc2ccc(Br)cc2c(=O)n1CCC | 13.4 µM (inactive) | 7.8 µM (inactive) | 15.1 µM (inactive) | 18.1 µM (inactive) | 13.4 µM (inactive) | 13.5 µM (inactive) | 9.98 µM (inactive) | 12.5 µM (inactive) |  | 12.4 µM (inactive) | 14.6 µM (inactive) | 14.2 µM | 8.04 µM (inactive) | 17.1 µM (inactive) | 3.67 µM (inactive) | 14.6 µM (inactive) | 14.1 µM (inactive) | 13.4 µM (inactive) | 15.4 µM (inactive)
C[C@H]1NC(=O)C2CCCCN2C(=O)CN(C)C(=O)CNC(=O)C2CCCCN2C(=O)[C@@H](NC(=O)c2nc3ccccc3cc2O)[C@@H](C)NC(=O)C2CCCCN2C(=O)CN(C)C(=O)CNC(=O)[C@@H]2CCCCN2C(=O)C1NC(=O)c1nc2ccccc2cc1O (stereo partly drawn) | 0.106 µM (active) | 2.59 µM (inactive) | 0.27 µM (active) | 0.166 µM (active) | 0.193 µM (active) | 0.182 µM (active) |  | 0.0664 µM (active) | 0.188 µM (active) | 0.0817 µM (active) | 0.389 µM (active) | 2.75 µM | 0.231 µM (active) | 0.0598 µM (active) | 0.274 µM (active) | 0.252 µM (active) | 0.241 µM (active) | 0.242 µM (active) | 0.0463 µM (active)
COC1=CC(C)C2C[C@H]3O[C@H](O)C[C@H]4C(C)C(=O)C(O)C([C@@]2(C)C1=O)[C@@]34C (stereo partly drawn) | > 100 µM (inactive) | > 100 µM (inactive) | > 100 µM (inactive) | > 100 µM (inactive) | > 100 µM (inactive) | > 100 µM (inactive) | > 100 µM (inactive) | > 100 µM (inactive) | > 100 µM (inactive) |  |  | > 100 µM | > 100 µM (inactive) | > 100 µM (inactive) | > 100 µM (inactive) | > 100 µM (inactive) | > 100 µM (inactive) | > 100 µM (inactive) | > 100 µM (inactive)
COC(=O)C1CC(OC(C)=O)C=C2C(=O)CCC21 (stereo not drawn) | 1.89 µM (inactive) | 14.6 µM (inactive) | 16.9 µM (inactive) | 37.9 µM (inactive) | 18.5 µM (inactive) | 19.6 µM (inactive) | 16.3 µM (inactive) | 73.1 µM (inactive) | 17.1 µM (inactive) | 29 µM (inactive) | 19 µM (inactive) | 15.3 µM | 15.9 µM (inactive) | 15.2 µM (inactive) | 21.4 µM (inactive) | 18.7 µM (inactive) | 16.7 µM (inactive) |  | 14.8 µM (inactive)
